# Measured values taken from patent US20250275540A1, “USE OF PROTOPORPHYRINOGEN OXIDASE” (BEIJING DABEINONG BIOTECHNOLOGY CO., LTD., priority 2022, published 2025).
# Test system: transgenic soybean plants
# Experiment: Detection of the herbicide tolerance of the transgenic soybean plants
# Format: in vivo
# Parameters: key to damage levels rated at grade: grade 0 means that the growth status of plants is essentially consistent with those sprayed with the blank solvent (water); grade 1 means that the average of the damage levels of plants is less than 10%; grade 2 means that the average of the damage levels of plants is greater than 10%; grade 3 means that the average of the damage levels of plants is 100%
# Conditions: for The grade of pesticide damage/plant: 0 / The grade of pesticide damage/plant: 1 / The grade of pesticide damage/plant: 2 / The grade of pesticide damage/plant: 3: 7 DAT
# [1] = genotype Control vector, 50 g ai/ha
# [2] = genotype Control vector, 100 g ai/ha
# [3] = genotype PPO-AP-01, 100 g ai/ha
# [4] = genotype PPO-EC-01, 100 g ai/ha
smiles,measurement,setting,value
"CC(C)N(C)S(=O)(=O)NC(=O)c1cc(-n2c(=O)cc(C(F)(F)F)n(C)c2=O)c(F)cc1Cl [saflufenacil, N′-[2-chloro-4-fluoro-5-(3-methyl-2,6-dioxo-4-(trifluoromethyl)-3,6-dihydro-1 (2H)-pyrimidine)benzoyl]-N-isopropyl-N-methylsulfamide]",The grade of pesticide damage/plant: 0,"genotype CK, 50 g ai/ha",0 plant
same,The grade of pesticide damage/plant: 1,"genotype CK, 50 g ai/ha",0 plant
same,The grade of pesticide damage/plant: 2,"genotype CK, 50 g ai/ha",0 plant
same,The grade of pesticide damage/plant: 3,"genotype CK, 50 g ai/ha",16 plant
same,The grade of pesticide damage/plant: 0,"genotype CK, 100 g ai/ha",0 plant
same,The grade of pesticide damage/plant: 1,"genotype CK, 100 g ai/ha",0 plant
same,The grade of pesticide damage/plant: 2,"genotype CK, 100 g ai/ha",0 plant
same,The grade of pesticide damage/plant: 3,"genotype CK, 100 g ai/ha",16 plant
same,The grade of pesticide damage/plant: 0,[1],0 plant
same,The grade of pesticide damage/plant: 1,[1],0 plant
same,The grade of pesticide damage/plant: 2,[1],0 plant
same,The grade of pesticide damage/plant: 3,[1],16 plant
same,The grade of pesticide damage/plant: 0,[2],0 plant
same,The grade of pesticide damage/plant: 1,[2],0 plant
same,The grade of pesticide damage/plant: 2,[2],0 plant
same,The grade of pesticide damage/plant: 3,[2],16 plant
same,The grade of pesticide damage/plant: 0,"genotype PPO-AP-01, 50 g ai/ha",0 plant
same,The grade of pesticide damage/plant: 1,"genotype PPO-AP-01, 50 g ai/ha",0 plant
same,The grade of pesticide damage/plant: 2,"genotype PPO-AP-01, 50 g ai/ha",8 plant
same,The grade of pesticide damage/plant: 3,"genotype PPO-AP-01, 50 g ai/ha",8 plant
same,The grade of pesticide damage/plant: 0,[3],0 plant
same,The grade of pesticide damage/plant: 1,[3],0 plant
same,The grade of pesticide damage/plant: 2,[3],0 plant
same,The grade of pesticide damage/plant: 3,[3],16 plant
same,tolerance to the herbicide (in words),"genotype PPO-AP-01, at different concentrations",basically no tolerance
same,The grade of pesticide damage/plant: 0,"genotype PPO-EC-01, 50 g ai/ha",9 plant
same,The grade of pesticide damage/plant: 1,"genotype PPO-EC-01, 50 g ai/ha",7 plant
same,The grade of pesticide damage/plant: 2,"genotype PPO-EC-01, 50 g ai/ha",0 plant
same,The grade of pesticide damage/plant: 3,"genotype PPO-EC-01, 50 g ai/ha",0 plant
same,The grade of pesticide damage/plant: 0,[4],8 plant
same,The grade of pesticide damage/plant: 1,[4],3 plant
same,The grade of pesticide damage/plant: 2,[4],5 plant
same,The grade of pesticide damage/plant: 3,[4],0 plant
same,share of the plants that exhibited moderate- or poor-resistant tolerance,"genotype PPO-EC-01, four-fold field concentration",about 32%
same,share of the plants rated at grade 1,"genotype PPO-EC-01, two-fold field concentration",about 44%
same,The grade of pesticide damage/plant: 0,"genotype PPOA-01, 50 g ai/ha",16 plant
same,The grade of pesticide damage/plant: 1,"genotype PPOA-01, 50 g ai/ha",0 plant
same,The grade of pesticide damage/plant: 2,"genotype PPOA-01, 50 g ai/ha",0 plant
same,The grade of pesticide damage/plant: 3,"genotype PPOA-01, 50 g ai/ha",0 plant
same,The grade of pesticide damage/plant: 0,"genotype PPOA-01, 100 g ai/ha",16 plant
same,The grade of pesticide damage/plant: 1,"genotype PPOA-01, 100 g ai/ha",0 plant
same,The grade of pesticide damage/plant: 2,"genotype PPOA-01, 100 g ai/ha",0 plant
same,The grade of pesticide damage/plant: 3,"genotype PPOA-01, 100 g ai/ha",0 plant
same,The grade of pesticide damage/plant: 0,"genotype PPOB-01, 50 g ai/ha",16 plant
same,The grade of pesticide damage/plant: 1,"genotype PPOB-01, 50 g ai/ha",0 plant
same,The grade of pesticide damage/plant: 2,"genotype PPOB-01, 50 g ai/ha",0 plant
same,The grade of pesticide damage/plant: 3,"genotype PPOB-01, 50 g ai/ha",0 plant
same,The grade of pesticide damage/plant: 0,"genotype PPOB-01, 100 g ai/ha",16 plant
same,The grade of pesticide damage/plant: 1,"genotype PPOB-01, 100 g ai/ha",0 plant
same,The grade of pesticide damage/plant: 2,"genotype PPOB-01, 100 g ai/ha",0 plant
same,The grade of pesticide damage/plant: 3,"genotype PPOB-01, 100 g ai/ha",0 plant
same,The grade of pesticide damage/plant: 0,"genotype PPOC-01, 50 g ai/ha",16 plant
same,The grade of pesticide damage/plant: 1,"genotype PPOC-01, 50 g ai/ha",0 plant
same,The grade of pesticide damage/plant: 2,"genotype PPOC-01, 50 g ai/ha",0 plant
same,The grade of pesticide damage/plant: 3,"genotype PPOC-01, 50 g ai/ha",0 plant
same,The grade of pesticide damage/plant: 0,"genotype PPOC-01, 100 g ai/ha",16 plant
same,The grade of pesticide damage/plant: 1,"genotype PPOC-01, 100 g ai/ha",0 plant
same,The grade of pesticide damage/plant: 2,"genotype PPOC-01, 100 g ai/ha",0 plant
same,The grade of pesticide damage/plant: 3,"genotype PPOC-01, 100 g ai/ha",0 plant
same,The grade of pesticide damage/plant: 0,"genotype PPOD-01, 50 g ai/ha",16 plant
same,The grade of pesticide damage/plant: 1,"genotype PPOD-01, 50 g ai/ha",0 plant
same,The grade of pesticide damage/plant: 2,"genotype PPOD-01, 50 g ai/ha",0 plant
same,The grade of pesticide damage/plant: 3,"genotype PPOD-01, 50 g ai/ha",0 plant
same,The grade of pesticide damage/plant: 0,"genotype PPOD-01, 100 g ai/ha",16 plant
same,The grade of pesticide damage/plant: 1,"genotype PPOD-01, 100 g ai/ha",0 plant
same,The grade of pesticide damage/plant: 2,"genotype PPOD-01, 100 g ai/ha",0 plant
same,The grade of pesticide damage/plant: 3,"genotype PPOD-01, 100 g ai/ha",0 plant
same,The grade of pesticide damage/plant: 0,"genotype PPOE-01, 50 g ai/ha",16 plant
same,The grade of pesticide damage/plant: 1,"genotype PPOE-01, 50 g ai/ha",0 plant
same,The grade of pesticide damage/plant: 2,"genotype PPOE-01, 50 g ai/ha",0 plant
same,The grade of pesticide damage/plant: 3,"genotype PPOE-01, 50 g ai/ha",0 plant
same,The grade of pesticide damage/plant: 0,"genotype PPOE-01, 100 g ai/ha",15 plant
same,The grade of pesticide damage/plant: 1,"genotype PPOE-01, 100 g ai/ha",1 plant
same,The grade of pesticide damage/plant: 2,"genotype PPOE-01, 100 g ai/ha",0 plant
same,The grade of pesticide damage/plant: 3,"genotype PPOE-01, 100 g ai/ha",0 plant
same,The grade of pesticide damage/plant: 0,"genotype PPOF-01, 50 g ai/ha",16 plant
same,The grade of pesticide damage/plant: 1,"genotype PPOF-01, 50 g ai/ha",0 plant
same,The grade of pesticide damage/plant: 2,"genotype PPOF-01, 50 g ai/ha",0 plant
same,The grade of pesticide damage/plant: 3,"genotype PPOF-01, 50 g ai/ha",0 plant
same,The grade of pesticide damage/plant: 0,"genotype PPOF-01, 100 g ai/ha",16 plant
same,The grade of pesticide damage/plant: 1,"genotype PPOF-01, 100 g ai/ha",0 plant
same,The grade of pesticide damage/plant: 2,"genotype PPOF-01, 100 g ai/ha",0 plant
same,The grade of pesticide damage/plant: 3,"genotype PPOF-01, 100 g ai/ha",0 plant
same,tolerance to the herbicide (in words),"genotypes PPOA-01 to PPOF-01, four-fold field concentration",high-resistant tolerance
same,damage levels rated at grade,"genotypes PPOA-01 to PPOF-01, two-fold field concentration",0
same,tolerance to the herbicide (in words),"genotypes PPOA-01 to PPOF-01 and PPO-EC-01, compared with the control vector and CK",different extents of tolerance
